Experimental data: publication PMC12571850 (Frontiers in Pharmacology, 2025)

Assays:
Ba/F3-KIF5B-RET tumor = assay: Ba/F3-KIF5B-RET xenograft mouse model; format: in vivo; conditions: 3 mg/kg p.o. BID, B-NDG mice
[1] = system: Ba/F3-KIF5B-RET-V804L tumor; assay: Ba/F3-KIF5B-RET-V804L xenograft mouse model; format: in vivo; conditions: 3 mg/kg p.o. BID, NPSG mice
Ba/F3-CCDC6-RET = assay: Cell proliferation (Celltiter-Glo), Ba/F3-CCDC6-RET; format: cell-based; conditions: BaF3/CCDC6-RET, anti-proliferative, read-out: IC50 (nM, mean ± SD)
Protocol: (§1) Ba/F3-KIF5B-RET, Ba/F3-CCDC6-RET, Ba/F3-KIF5B-RET-V804L, Ba/F3-KIF5B-RET-V804M, Ba/F3-KIF5B-RET-G810R, and Ba/F3-KIF5B-RET-G810S cells were provided by Kyinno Biotechnology Co., Ltd. The cells were cultured in RPMI 1640 (Biological Industries, Israel) supplemented with 10% fetal bovine serum (Biological Industries, Israel) and 1% Penicillin/Streptomycin solution (Corning, United States). They were incubated at 37 °C in a humidified atmosphere containing 5% CO2, and cell proliferation was evaluated using the Celltiter-Glo luminescent cell viability assay.

Ba/F3-KIF5B-RET-V804L = assay: Cell proliferation (Celltiter-Glo), Ba/F3-KIF5B-RET-V804L; format: cell-based; conditions: anti-proliferative, read-out: IC50 (nM, mean ± SD)
Protocol: as §1

[2] = system: Ba/F3-KIF5B-RET-G810R tumor; assay: Ba/F3-KIF5B-RET-G810R xenograft mouse model; conditions: 10 mg/kg p.o. BID days 0–16, NOD SCID mice
Ba/F3-KIF5B-RET-G810S = assay: Cell proliferation (Celltiter-Glo), Ba/F3-KIF5B-RET-G810S; format: cell-based; conditions: anti-proliferative, read-out: IC50 (nM, mean ± SD)
Protocol: as §1

Ba/F3-KIF5B-RET = assay: Cell proliferation (Celltiter-Glo), Ba/F3-KIF5B-RET; format: cell-based; conditions: anti-proliferative, read-out: IC50 (nM, mean ± SD)
Protocol: as §1

Ba/F3-KIF5B-RET-G810R = assay: Cell proliferation (Celltiter-Glo), Ba/F3-KIF5B-RET-G810R; format: cell-based; conditions: anti-proliferative, read-out: IC50 (nM, mean ± SD)
Protocol: as §1

[3] = system: Ba/F3-KIF5B-RET-G810S tumor; assay: Ba/F3-KIF5B-RET-G810S xenograft mouse model; format: in vivo; conditions: 10 mg/kg p.o. BID, NOD SCID mice
Ba/F3-KIF5B-RET-V804M = assay: Cell proliferation (Celltiter-Glo), Ba/F3-KIF5B-RET-V804M; format: cell-based; conditions: anti-proliferative, read-out: IC50 (nM, mean ± SD)
Protocol: as §1

Structure (SMILES): COc1ccc(CN2C3CC2CN(c2ccc(-c4cc(OCC(C)(C)O)cn5ncc(C#N)c45)cn2)C3)cn1 [Selpercatinib]
- tumor growth inhibition (TGI) (Ba/F3-KIF5B-RET tumor): 57.06%
- TGI [1]: 79.48%
- IC50 (Ba/F3-CCDC6-RET): 70.3 ± 0.91 nM
- IC50 (Ba/F3-KIF5B-RET-V804L): 16.2 ± 3.22 nM
- TGI [2]: 35.37%
- IC50 (Ba/F3-KIF5B-RET-G810S): 125 ± 19.7 nM
- IC50 (Ba/F3-KIF5B-RET): 11.5 ± 4.31 nM
- IC50 (Ba/F3-KIF5B-RET-G810R): 734 ± 56.1 nM
- TGI [3]: 82.15%
- IC50 (Ba/F3-KIF5B-RET-V804M): 65.3 ± 20.7 nM
